The text below walks through data of patent US10106538B2, “Inhibitors of protein kinases” (PRINCETON DRUG DISCOVERY INC, priority 2015, dated 2018).

Common to all, as to test: Off-chip Mobility Shift Assay (MSA) kinase inhibition
Common to all, as to type: biochemical

In one test the target is T1, ALK (Homo sapiens, UniProt Q9UM73).
T1 construct: purchased Carna Biosciences
The conditions noted are these: for inhibition at 0.1 µM: inhibitor concentration 0.1 μM. As for the experimental part: (§1) Off-chip Mobility Shift Assay (MSA) by Cama Biosciences, Inc (Natick, Mass.) a used for measuring the kinase activity and inhibition. • 1) The 5 μL of x4 compound solution, 5 μL of x4 Substrate/ATP/Metal solution, and 10 μL of x2 kinase solution were prepared with assay buffer (20 mM HEPES, 0.01% Triton X100, 2 mM DTT, pH 7.5) and mixed and incubated in a well of polypropylene 384 well microplate for 1 or 5 hour(s)* at room temperature.

A further test has as its target T2, LYNa (Homo sapiens, UniProt P07948).
T2 construct: purchased Carna Biosciences
The note with it: for inhibition at 0.1 µM: inhibitor concentration 0.1 μM. As for the experimental part: as §1

The target in another test is T3, FGR (Homo sapiens, UniProt P09769).
T3 construct: purchased Carna Biosciences
The note with it: for inhibition at 0.1 µM: inhibitor concentration 0.1 μM. As for the experimental part: as §1

The next test deals with T4, Erk1 (Homo sapiens, UniProt P27361).
T4 construct: purchased Carna Biosciences
The note with it: for inhibition at 0.1 µM: inhibitor concentration 0.1 μM. The procedure: as §1

Another test deals with T5, JAK2 (Homo sapiens, UniProt O60674).
T5 construct: purchased Carna Biosciences
The conditions noted are these: for inhibition at 0.1 µM: inhibitor concentration 0.1 μM. As for the experimental part:
as §1

Another test concerns the target T6, SRC (Homo sapiens, UniProt P12931).
T6 construct: purchased Carna Biosciences
The conditions noted are these: for inhibition at 0.1 µM: inhibitor concentration 0.1 μM. As for the experimental part: as §1

Another test has as its target T7, BRAF (Homo sapiens, UniProt P15056).
T7 construct: purchased Carna Biosciences
As for the experimental part: as §1

A further test concerns the target T8, FLT3 (Homo sapiens, UniProt P36888).
T8 construct: purchased Carna Biosciences
T8 sequence (P36888 27-993): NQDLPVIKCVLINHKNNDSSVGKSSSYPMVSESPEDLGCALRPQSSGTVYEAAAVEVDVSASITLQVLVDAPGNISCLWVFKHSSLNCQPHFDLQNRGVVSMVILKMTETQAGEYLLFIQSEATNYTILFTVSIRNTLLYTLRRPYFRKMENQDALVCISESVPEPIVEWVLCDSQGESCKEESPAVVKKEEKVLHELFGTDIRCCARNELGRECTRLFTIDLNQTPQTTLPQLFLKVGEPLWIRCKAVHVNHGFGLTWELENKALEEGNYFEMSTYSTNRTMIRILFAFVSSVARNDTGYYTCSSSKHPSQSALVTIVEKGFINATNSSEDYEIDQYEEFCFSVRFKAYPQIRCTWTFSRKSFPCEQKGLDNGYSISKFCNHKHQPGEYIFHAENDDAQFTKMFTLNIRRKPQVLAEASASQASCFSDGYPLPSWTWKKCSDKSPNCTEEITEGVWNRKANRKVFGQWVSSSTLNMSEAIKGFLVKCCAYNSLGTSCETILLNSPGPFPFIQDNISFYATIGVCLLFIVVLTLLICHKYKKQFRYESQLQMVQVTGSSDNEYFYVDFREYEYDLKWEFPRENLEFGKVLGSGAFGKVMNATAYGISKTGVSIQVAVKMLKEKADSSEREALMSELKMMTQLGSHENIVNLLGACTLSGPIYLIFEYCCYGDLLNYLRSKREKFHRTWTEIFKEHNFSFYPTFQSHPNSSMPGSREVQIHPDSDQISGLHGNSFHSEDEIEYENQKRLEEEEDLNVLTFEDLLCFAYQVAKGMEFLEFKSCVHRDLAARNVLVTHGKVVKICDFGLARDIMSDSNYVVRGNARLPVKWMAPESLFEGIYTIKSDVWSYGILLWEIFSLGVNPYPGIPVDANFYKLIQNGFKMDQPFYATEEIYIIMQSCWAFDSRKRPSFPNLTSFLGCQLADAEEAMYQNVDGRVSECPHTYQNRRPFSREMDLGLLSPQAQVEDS
The note with it: for inhibition at 0.1 µM: inhibitor concentration 0.1 μM. The procedure:
as §1

The target in another test is T9, ABL (Homo sapiens, UniProt P00519).
T9 construct: purchased Carna Biosciences
The note with it: for inhibition at 0.1 µM: inhibitor concentration 0.1 μM. The procedure:
as §1

Another test addresses T10, Erk5 (Homo sapiens, UniProt Q13164).
T10 construct: purchased Carna Biosciences
The note with it: for inhibition at 0.1 µM: inhibitor concentration 0.1 μM. As for the experimental part: as §1

The next test concerns the target T11, MET (Homo sapiens, UniProt P08581).
T11 construct: purchased Carna Biosciences
The conditions noted are these: for inhibition at 0.1 µM: inhibitor concentration 0.1 μM. The procedure:
as §1

The target in the next test is T12, PKACα (Homo sapiens, UniProt P17612).
T12 construct: purchased Carna Biosciences, Inc
The conditions noted are these: inhibitor concentration 0.1 μM. The procedure:
as §1

The target in another test is T13, AXL (Homo sapiens, UniProt P30530).
T13 construct: purchased Carna Biosciences
T13 sequence (P30530 26-894): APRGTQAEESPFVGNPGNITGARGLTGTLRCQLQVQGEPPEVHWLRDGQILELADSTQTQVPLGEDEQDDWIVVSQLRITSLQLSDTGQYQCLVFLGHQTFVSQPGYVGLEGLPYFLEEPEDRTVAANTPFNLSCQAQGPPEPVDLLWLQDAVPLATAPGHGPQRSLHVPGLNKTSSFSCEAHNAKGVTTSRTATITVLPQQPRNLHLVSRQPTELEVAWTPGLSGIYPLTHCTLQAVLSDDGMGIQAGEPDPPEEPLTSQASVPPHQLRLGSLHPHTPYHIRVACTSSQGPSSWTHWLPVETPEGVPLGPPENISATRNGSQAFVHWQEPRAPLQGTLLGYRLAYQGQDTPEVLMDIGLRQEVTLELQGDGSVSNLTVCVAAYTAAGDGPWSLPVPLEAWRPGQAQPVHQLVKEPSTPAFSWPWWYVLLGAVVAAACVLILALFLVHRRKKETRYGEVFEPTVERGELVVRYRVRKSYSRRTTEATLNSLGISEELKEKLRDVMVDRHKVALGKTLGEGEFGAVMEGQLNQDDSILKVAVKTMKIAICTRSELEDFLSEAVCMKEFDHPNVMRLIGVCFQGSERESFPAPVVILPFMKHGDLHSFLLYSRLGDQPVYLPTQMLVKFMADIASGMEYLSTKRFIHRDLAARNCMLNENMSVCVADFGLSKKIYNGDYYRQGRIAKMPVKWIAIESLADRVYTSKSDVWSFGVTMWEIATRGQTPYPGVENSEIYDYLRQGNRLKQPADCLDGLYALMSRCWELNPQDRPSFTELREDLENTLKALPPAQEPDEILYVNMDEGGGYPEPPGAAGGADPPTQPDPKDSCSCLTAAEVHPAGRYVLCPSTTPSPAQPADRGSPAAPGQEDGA
The note with it: inhibitor concentration 0.1 μM. The procedure:
as §1

In a further test the target is T14, AKT1 (Homo sapiens, UniProt P31749).
T14 construct: purchased Carna Biosciences
The note with it: inhibitor concentration 0.1 μM. The procedure: as §1

The target of another test is T15, AKT3 (Homo sapiens, UniProt Q9Y243).
T15 construct: purchased Carna Biosciences
T15 sequence (Q9Y243 whole entry): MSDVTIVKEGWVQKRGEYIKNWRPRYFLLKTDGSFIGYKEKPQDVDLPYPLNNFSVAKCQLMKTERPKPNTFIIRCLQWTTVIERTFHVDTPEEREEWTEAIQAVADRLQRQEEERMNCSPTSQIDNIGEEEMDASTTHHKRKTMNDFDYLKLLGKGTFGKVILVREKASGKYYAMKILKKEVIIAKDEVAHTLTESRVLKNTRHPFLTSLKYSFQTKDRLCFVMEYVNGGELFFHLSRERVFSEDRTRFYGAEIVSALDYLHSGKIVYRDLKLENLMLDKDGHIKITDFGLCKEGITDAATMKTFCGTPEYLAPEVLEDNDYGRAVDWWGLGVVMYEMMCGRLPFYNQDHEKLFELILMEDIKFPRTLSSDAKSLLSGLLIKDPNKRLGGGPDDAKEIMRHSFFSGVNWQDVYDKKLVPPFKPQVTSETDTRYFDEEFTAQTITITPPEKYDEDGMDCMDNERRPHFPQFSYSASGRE
The note with it: inhibitor concentration 0.1 μM. As for the experimental part:
as §1

The next test has as its target T16, JNK2 (Homo sapiens, UniProt P45984).
T16 construct: purchased Carna Biosciences
The note with it: inhibitor concentration 0.1 μM. The procedure:
as §1

Where [1] appears, read: inhibitor concentration 0.01 μM.
The mark [2] stands for this setting: inhibitor concentration 0.01 μM, 0.01 µM.

What is called inhibition is the drop in the measured response relative to a control, in per cent.

The structures appear in SMILES notation.

T10 sequence (Q13164 whole entry): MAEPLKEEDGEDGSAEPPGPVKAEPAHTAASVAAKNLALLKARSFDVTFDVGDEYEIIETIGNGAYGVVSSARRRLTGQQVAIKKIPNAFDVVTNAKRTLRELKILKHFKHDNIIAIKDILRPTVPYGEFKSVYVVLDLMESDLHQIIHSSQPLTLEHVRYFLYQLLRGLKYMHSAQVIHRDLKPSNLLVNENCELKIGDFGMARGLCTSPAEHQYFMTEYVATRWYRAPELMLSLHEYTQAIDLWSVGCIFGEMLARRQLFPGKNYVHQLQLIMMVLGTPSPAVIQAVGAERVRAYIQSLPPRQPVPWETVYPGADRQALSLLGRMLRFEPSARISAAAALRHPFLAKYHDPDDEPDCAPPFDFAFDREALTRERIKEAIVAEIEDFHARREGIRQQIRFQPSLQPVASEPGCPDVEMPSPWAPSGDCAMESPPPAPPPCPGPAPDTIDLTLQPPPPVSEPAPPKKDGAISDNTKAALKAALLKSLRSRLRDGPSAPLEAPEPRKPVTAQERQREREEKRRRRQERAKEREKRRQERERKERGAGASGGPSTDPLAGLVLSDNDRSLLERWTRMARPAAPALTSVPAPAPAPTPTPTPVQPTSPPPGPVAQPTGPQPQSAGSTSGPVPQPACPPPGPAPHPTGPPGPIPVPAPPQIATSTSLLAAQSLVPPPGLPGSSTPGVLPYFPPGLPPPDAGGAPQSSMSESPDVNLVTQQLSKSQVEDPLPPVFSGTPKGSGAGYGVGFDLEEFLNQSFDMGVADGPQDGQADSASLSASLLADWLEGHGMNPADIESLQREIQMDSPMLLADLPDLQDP
T1 sequence (Q9UM73 19-1620): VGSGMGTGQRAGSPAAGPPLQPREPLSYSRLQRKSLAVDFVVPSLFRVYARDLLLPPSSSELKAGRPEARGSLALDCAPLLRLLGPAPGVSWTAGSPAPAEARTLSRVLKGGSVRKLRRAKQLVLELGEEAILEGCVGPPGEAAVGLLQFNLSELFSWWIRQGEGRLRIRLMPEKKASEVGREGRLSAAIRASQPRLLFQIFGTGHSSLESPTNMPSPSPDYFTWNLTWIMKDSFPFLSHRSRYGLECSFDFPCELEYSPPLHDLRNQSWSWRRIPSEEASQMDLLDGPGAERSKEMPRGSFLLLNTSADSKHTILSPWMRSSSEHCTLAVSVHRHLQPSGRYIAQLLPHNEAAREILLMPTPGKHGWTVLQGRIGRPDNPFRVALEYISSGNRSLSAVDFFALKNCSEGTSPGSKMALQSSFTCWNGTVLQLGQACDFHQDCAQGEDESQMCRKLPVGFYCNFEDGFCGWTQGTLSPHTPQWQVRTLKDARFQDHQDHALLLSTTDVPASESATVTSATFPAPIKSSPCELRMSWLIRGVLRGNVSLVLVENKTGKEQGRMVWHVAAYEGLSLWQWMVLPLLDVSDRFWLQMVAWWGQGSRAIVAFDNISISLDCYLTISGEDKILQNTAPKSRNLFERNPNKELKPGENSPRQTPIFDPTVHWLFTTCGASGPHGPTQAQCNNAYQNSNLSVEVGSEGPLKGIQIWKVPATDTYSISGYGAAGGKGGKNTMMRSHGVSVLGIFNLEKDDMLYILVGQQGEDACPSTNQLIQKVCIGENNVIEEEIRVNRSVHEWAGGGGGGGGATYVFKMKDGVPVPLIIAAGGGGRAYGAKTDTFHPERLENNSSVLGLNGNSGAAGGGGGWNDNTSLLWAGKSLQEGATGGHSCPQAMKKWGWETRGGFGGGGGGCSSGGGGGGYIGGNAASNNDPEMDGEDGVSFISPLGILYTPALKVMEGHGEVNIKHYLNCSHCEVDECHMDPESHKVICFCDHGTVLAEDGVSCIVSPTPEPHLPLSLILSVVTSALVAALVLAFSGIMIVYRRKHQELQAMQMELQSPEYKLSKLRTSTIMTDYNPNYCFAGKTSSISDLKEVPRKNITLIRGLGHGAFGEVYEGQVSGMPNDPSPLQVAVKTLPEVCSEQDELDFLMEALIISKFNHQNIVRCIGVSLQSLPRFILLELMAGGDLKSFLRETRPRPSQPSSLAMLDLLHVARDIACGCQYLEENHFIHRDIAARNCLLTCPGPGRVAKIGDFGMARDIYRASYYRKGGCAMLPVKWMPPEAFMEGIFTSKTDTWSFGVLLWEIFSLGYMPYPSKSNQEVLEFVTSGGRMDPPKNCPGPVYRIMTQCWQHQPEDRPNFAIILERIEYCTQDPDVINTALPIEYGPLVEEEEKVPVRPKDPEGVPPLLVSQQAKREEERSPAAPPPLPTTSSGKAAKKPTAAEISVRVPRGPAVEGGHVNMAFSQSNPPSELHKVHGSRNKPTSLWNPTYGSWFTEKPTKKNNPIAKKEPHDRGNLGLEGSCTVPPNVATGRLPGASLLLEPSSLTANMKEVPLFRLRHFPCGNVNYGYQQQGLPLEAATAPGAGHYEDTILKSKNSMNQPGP
T2 sequence (P07948 whole entry): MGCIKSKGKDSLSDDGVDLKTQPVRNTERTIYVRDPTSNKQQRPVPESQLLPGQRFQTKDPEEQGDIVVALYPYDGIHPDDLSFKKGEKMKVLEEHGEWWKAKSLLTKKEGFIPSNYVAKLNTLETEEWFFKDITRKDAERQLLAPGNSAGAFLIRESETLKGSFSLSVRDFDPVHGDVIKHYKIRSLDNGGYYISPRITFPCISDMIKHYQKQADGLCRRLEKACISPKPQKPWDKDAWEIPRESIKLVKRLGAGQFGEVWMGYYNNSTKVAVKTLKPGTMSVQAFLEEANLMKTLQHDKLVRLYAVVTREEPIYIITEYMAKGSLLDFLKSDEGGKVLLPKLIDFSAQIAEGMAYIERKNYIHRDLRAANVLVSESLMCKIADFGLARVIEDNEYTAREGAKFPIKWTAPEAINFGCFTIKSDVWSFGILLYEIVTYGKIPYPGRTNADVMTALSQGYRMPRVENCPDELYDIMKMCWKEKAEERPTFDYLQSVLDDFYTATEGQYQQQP
T11 sequence (P08581 25-1390): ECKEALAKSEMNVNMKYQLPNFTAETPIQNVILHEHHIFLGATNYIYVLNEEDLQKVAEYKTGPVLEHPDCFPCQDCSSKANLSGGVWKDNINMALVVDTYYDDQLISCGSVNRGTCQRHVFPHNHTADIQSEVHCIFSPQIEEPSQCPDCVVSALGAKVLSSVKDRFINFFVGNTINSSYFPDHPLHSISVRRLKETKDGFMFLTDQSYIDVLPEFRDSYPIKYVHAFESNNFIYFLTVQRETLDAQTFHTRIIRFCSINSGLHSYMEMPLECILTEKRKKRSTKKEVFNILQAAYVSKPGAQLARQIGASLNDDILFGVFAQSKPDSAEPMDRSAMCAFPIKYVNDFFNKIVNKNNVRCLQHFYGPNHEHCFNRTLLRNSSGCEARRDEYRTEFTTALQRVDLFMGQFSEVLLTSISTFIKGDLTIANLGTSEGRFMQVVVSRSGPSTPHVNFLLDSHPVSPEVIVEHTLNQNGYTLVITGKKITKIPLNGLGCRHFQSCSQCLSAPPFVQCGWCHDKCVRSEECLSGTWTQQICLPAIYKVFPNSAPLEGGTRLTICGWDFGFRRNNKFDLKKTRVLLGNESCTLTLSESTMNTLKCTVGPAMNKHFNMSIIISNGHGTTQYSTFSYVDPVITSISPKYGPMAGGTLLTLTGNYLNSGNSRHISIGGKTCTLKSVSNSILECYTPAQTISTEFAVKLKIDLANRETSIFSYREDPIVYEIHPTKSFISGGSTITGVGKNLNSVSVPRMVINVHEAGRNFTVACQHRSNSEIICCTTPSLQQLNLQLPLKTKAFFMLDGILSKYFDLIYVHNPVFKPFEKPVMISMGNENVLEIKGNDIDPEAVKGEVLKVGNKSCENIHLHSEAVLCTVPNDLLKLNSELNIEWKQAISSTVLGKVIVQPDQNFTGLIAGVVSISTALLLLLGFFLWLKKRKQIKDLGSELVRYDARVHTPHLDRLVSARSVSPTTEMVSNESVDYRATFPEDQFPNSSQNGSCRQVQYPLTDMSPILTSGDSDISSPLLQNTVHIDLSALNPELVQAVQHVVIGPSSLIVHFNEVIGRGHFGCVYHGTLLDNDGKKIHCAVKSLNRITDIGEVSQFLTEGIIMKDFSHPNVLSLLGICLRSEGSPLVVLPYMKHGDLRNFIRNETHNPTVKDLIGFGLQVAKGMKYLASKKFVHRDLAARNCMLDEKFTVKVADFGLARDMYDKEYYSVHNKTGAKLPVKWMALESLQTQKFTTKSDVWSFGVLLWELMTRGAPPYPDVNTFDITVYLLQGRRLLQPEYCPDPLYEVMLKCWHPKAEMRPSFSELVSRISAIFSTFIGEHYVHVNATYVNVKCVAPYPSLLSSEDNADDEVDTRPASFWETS

Turning to `O=C(c1c(F)ccc(NS(=O)(=O)CCCO)c1F)c1c[nH]c2ncc(-c3ccc(Cl)cc3)cc12` [200-17, N-[3-[5-(4-chlorophenyl)-1H-pyrrolo[2,3-b]pyridine-3-carbonyl]-2,4-difluorophenyl]-3-hydroxypropane-1-sulfonamide], the inhibition at 1 µM was over 50% at ALK (inhibitor concentration 1 μM); over 50% at LYNa (inhibitor concentration 1 μM); over 50% on FGR (inhibitor concentration 1 μM); under 50% at Erk1 (inhibitor concentration 1 μM); over 50% on JAK2 (inhibitor concentration 1 μM); over 50% on SRC (inhibitor concentration 1 μM). Also, the inhibition at 1 µM was under 50% on BRAF (inhibitor concentration 1 μM); over 50% on FLT3 (inhibitor concentration 1 μM); under 50% on ABL (inhibitor concentration 1 μM); over 50% on Erk5 (inhibitor concentration 1 μM); over 50% on MET (inhibitor concentration 1 μM). Moreover, the inhibition at 0.01 µM on LYNa (setting [1]) is under 30%; on FGR (setting [1]) it was over 30%; on JAK2 (setting [1]), under 30%; on SRC (setting [1]), under 30%. For the same compound, the inhibition at 0.1 µM at LYNa, at FGR, at JAK2 and on SRC was over 50% each time.
`O=C(c1c(F)ccc(NS(=O)(=O)CC(O)CO)c1F)c1c[nH]c2ncc(-c3ccc(Cl)cc3)cc12` (stereo not drawn) [200-73, N-[3-[5-(4-chlorophenyl)-lH-pyrrolo [2,3-b]pyridine-3-carbonyl]-2,4-difluorophenyl]-2,3-dihydroxypropane-l-sulfonamide]: the inhibition at 0.1 µM at PKACα, on AXL, at ALK, at AKT1, at AKT3 and at LYNa was under 30% throughout. Moreover, the inhibition at 0.1 µM on JNK2, on FGR, on Erk1, at JAK2, on SRC and on BRAF (inhibitor concentration 0.1 μM) was under 30% in each case. In addition, the inhibition at 0.1 µM on FLT3, on ABL, at Erk5 and at MET was under 30% throughout.
On to `C/C=C/S(=O)(=O)Nc1ccc(F)c(C(=O)c2c[nH]c3ncc(-c4ccc(Cl)cc4)cc23)c1F` [200-93b], for which the FGR inhibition at FGR (setting [2]) was over 20%. The JAK2 inhibition at JAK2 (setting [2]) is under 20%. Also, the SRC inhibition on SRC (setting [2]) is under 20%. In addition, on BRAF (setting [2]), the BRAF inhibition was under 20%.
`CC(O)CS(=O)(=O)Nc1ccc(F)c(C(=O)c2c[nH]c3ncc(-c4ccc(Cl)cc4)cc23)c1F` (stereo not drawn) [200-115]: the inhibition at 0.1 µM on PKACα, at AXL, at ALK, on AKT1, at AKT3 and at LYNa was under 30% each time. For the same compound, the inhibition at 0.1 µM at JNK2 was under 30%; on FGR, over 30%; on Erk1, under 30%; at JAK2, under 30%; on SRC, under 30%; at FLT3 it was under 30%. For the same compound, the inhibition at 0.1 µM at ABL, at Erk5 and at MET was under 30% in each case.
With `CC(=O)CS(=O)(=O)Nc1ccc(F)c(C(=O)c2c[nH]c3ncc(-c4ccc(Cl)cc4)cc23)c1F` [200-117], the inhibition at 0.1 µM at PKACα is under 30%; at AXL, under 30%; at ALK, under 30%; at AKT1, under 30%; at AKT3, under 30%; on LYNa, over 30%. Further, the inhibition at 0.1 µM at JNK2 was under 30%; at FGR, over 30%; at Erk1, under 30%; on JAK2, under 30%; on SRC, under 30%; at FLT3, under 30%. For the same compound, the inhibition at 0.1 µM on ABL, on Erk5 and at MET was under 30% each time.
